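Exposure lasted 48 hours, with cells grown in 96-well plates and compounds tested at five concentrations. TGI marks complete inhibition of growth.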
Columns and labels:
Experiment in all cases: NCI tumour cell line growth inhibition, 48 h
[1] = tested on: NCI-H226 lung
[2] = tested on: U251 CNS
[3] = tested on: SN12C renal
[4] = tested on: EKVX NSCLC
[5] = tested on: HS 578T breast
[6] = tested on: SF-295 CNS
[7] = tested on: SK-OV-3 ovarian
[8] = tested on: SF-268 CNS
[9] = tested on: DU-145 prostate
[10] = tested on: OVCAR-5 ovarian

Compound	TGI [1] [µM]	TGI [2] [µM]	TGI [3] [µM]	TGI [4] [µM]	TGI [5] [µM]	TGI [6] [µM]	TGI [7] [µM]	TGI [8] [µM]	TGI [9] [µM]	TGI [10] [µM]
COC(=O)C1CCC(=O)N1C(c1ccc2c(c1)OCO2)c1cc(OC)c(OC)c(OC)c1 (stereo not given)	> 100	> 100	> 100	> 100	> 100	> 100	> 100	> 100	> 100	> 100
N#C/C(C(=S)NCc1ccccc1)=C(/N)N1CCCC1	> 100	> 100	> 100	> 100	> 100	> 100	> 100	> 100	> 100	> 100
Nc1nc2c(C(=O)O)c3ccc([N+](=O)[O-])cc3c(=O)n2c2ccccc12	53.9	92.9	58.1	> 100	70.6	95.5	74.1	94.8	49.4	> 100
COC(=O)C(Cc1c[nH]c2ccccc12)N=C1Nc2ccncc2S(=O)(=O)N1c1cccc(OC(C)C)c1 (stereo not given)	> 100	> 100	> 100	> 100	> 100	> 100	> 100	> 100	> 100	> 100
N#Cc1nc(C#N)n(S(=O)(=O)c2ccccc2)c1NS(=O)(=O)c1ccccc1	> 100	> 100	> 100	> 100	> 100	> 100	> 100	> 100	> 100	> 100
CCOC(=O)C1CCCCN1C(=O)Cc1c[nH]c2ccccc12 (stereo not given)	> 100	> 100	> 100	> 100	> 100	> 100	> 100	> 100	> 100	> 100
c1ccc(CC2COC(c3cccs3)=N2)cc1 (stereo not given)	> 100	> 100	> 100	> 100	> 100	> 100	> 100	> 100	> 100	> 100
COc1cc(Oc2nc3ccc(C(F)(F)F)cc3nc2-c2ccccc2)cc(OC)c1OC	> 100	28.5	> 100	> 100	> 100	28.2	33.4	95.2	> 100	> 100
c1ccc(N=C2c3ccsc3C(=Nc3ccccc3)c3ccsc32)cc1	11.4	4.01	3.02	4.31	6.04	3.11	16.3	6.82	3.12	3.12
C[N+](C)(C)c1ncnc2c1ncn2C1CCCO1 (stereo not given)	> 100	> 100	> 100	> 100	> 100	> 100	> 100	> 100	> 100	> 100
CN=C(Nc1cccc(C(F)(F)F)c1)SCc1ccc(N=C=S)cc1	45	29.8	26.9	45.1	54.2	30.2	34.5	73.3	31.2	30.2
COc1ccc2c3c1O[C@H](c1ccc(O)cc1)[C@H]3[N+](C)(C)CC2	> 100	> 100	> 100	> 100	> 100	> 100	> 100	> 100	> 100	> 100
CO/N=C1/c2sccc2[C@H](NC(=O)C(Cc2ccccc2)NC(=O)OC(C)(C)C)[C@@H]1O (stereo not given in full)	> 100	> 100	> 100	> 100	> 100	> 100	> 100	> 100	> 100	> 100
CN(C)CCc1c2c(nc3ccccc13)C(=O)c1cccnc1C2=O	0.473	4.3	1.92	5.73	4.15	1.03	2.52	2.69	1.22	3.44
CCOC(=O)Cn1nnc2ccc(Nc3nc4ccccc4nc3-c3ccccc3)cc21	> 100	> 100	> 100	> 100	> 100	> 100	> 100	> 100	31.8	> 100
CC1(C)CC(=O)c2c(nc3c4c([nH]c(-c5ccc(Br)cc5)c24)CC(C)(C)C3)C1	> 100	> 100	> 100	> 100	> 100	> 100	> 100	> 100	> 100	> 100
Cc1cnc2c(c1C)C(=O)c1ccccc1C2=O	> 100	> 100	> 100	> 100	> 100	> 100	> 100	> 100	> 100	> 100
CCCc1[nH]c2ccccc2c1-c1c(CCC)[nH]c2ccccc12	39.1	21.9	23.2	30.9	50.5	32.8	65.5	28.3	35	33.6
O=c1[nH]nc(-c2ccccc2)n1O	> 100	> 100	> 100	> 100	> 100	> 100	> 100	> 100	> 100	> 100
COc1cc(CNc2nc3ccccc3nc2C(=O)O)cc(OC)c1OC	> 100	> 100	> 100	> 100	> 100	> 100	> 100	> 100	> 100	> 100
Cn1c(=O)n2n(c1=O)C(C)(C13CC4CC(CC(C4)C1)C3)C13CC4CC(CC1C4)CC23 (stereo not given)	> 100	> 100	> 100	> 100	> 100	> 100	> 100	> 100	> 100	> 100
CC(C)/C(Cl)=N/OC(=O)Nc1ccc(Cl)c(Cl)c1	32.2	43.8	3.42	3.95	54.5	32.2	30.7	34.8	32.5	30.2
Nc1ncnc2c1ncn2[C@@H]1O[C@H](COC(c2ccccc2)(c2ccccc2)c2ccccc2)[C@@H](OC(=S)Oc2ccccc2)[C@@H]1F	31.8	21.8	15.1	26.6	25.1	31.1	30.8	12.4	30.2	37
Clc1ccc2oc(CCc3ccccc3)nc2c1	> 100	> 100	> 100	> 100	> 100	> 100	> 100	> 100	> 100	> 100
O=[N+]([O-])c1ccc(C(O)(C#CCN2CCCC2)c2ccccc2)cc1 (stereo not given)	> 100	> 100	> 100	> 100	95.7	> 100	> 100	> 100	> 100	> 100

— PubChem BioAssay (NCI)
